{"source": "patent US4302535A", "about": "“Assay for mutagenesis in heterozygous diploid human lymphoblasts” (Massachusetts Institute of Technology, priority 1979, dated 1981)", "key": {"TK6 cells [1]": {"system": "TK6 cells", "assay": "Mutagenicity of polyaromatic hydrocarbons, trifluorothymidine resistance (Example 8, Table 4)", "details": "conclusion from plots and tables", "experimental": "Three polyaromatic hydrocarbons derived from kerosine soot were examined for mutagenicity.\nError bars are the standard deviation of the mean.\nFor perylene, TK6 cells were treated in duplicate with perylene for 3 hours in the presence of 5% (v/v) aroclor-induced rat liver post-mitochondrial supernatant."}, "TK6 cell line": {"system": "TK6 cell line", "assay": "Mutation assay employing TK6 cell line: induction of TFTdR-resistant mutants (Example 2, Table 1)", "type": "cell-based, human", "experimental": "One cell line, TK6, isolated in Example 1, was maintained in spinner culture at 37° C. with a doubling time of approximately 18 hours. Approximately 10^7 cells (4×10^5 /ml) were treated with either BMS (1 mM) of ICR-191 (0.25 μg/ml and 0.50 μg/ml) for 24 hours. After treatment, the cells were centrifuged and resuspended in fresh medium at a concentration of 3×10^5 /ml. Dilutions to 3×10^5 /ml were made daily.\nAt various times after treatment, duplicate aliquots of 4×10^6 cells were centrifuged and resuspended in 10 ml of RPMI containing 20% FCS, 100 μ/ml penicillin, and 0.25% agarose (plating agar). To determine the plating efficiency of the culture, a […] sample of the suspension containing 4000 cells was added to 5 ml of plating agar and layered over 5 ml prejelled layer of the same medium in a 100 mm petri dish. […] The suspension was then plated in two 5 ml aliquots, each layered over a prejelled layer of plating agar in a 100 mm petri dish (final TFTdR concentration=1 μg/ml). The plates were fed the following day with 3 ml of medium.\nThe plates were counted after 7-10 days in a 37° C., 5% CO2, humidified incubator."}, "[2]": {"system": "TK6 cells and trifluorothymidine-resistant mutants", "assay": "Reconstruction experiment: toxicity of BMS to TK6 and mutants (Example 7, FIG. 5)", "type": "cell-based, human", "details": "24 hours exposure; relative surviving fraction", "experimental": "TK6 cells were exposed to BMS for 24 hours. After treatment, the relative surviving fraction was determined by plating in micro wells."}, "TK6 cells [3]": {"system": "TK6 cells", "details": "induced by BMS (3 mM, 2 hours), 5 μg/ml 6-thioguanine"}, "[4]": {"system": "trifluorothymidine-resistant TK6 mutant clones and TK6", "assay": "Growth of trifluorothymidine-resistant mutants in various media (Example 4, Table 2)", "type": "cell-based, human", "set-up": "key to T2 - F3 TdR (doubling time): NG means no growth was observed in 3 days", "details": "F3 TdR 1.0 μg/ml", "experimental": "Growth experiments were performed approximately three weeks later, in 25 cm^2 […] total volume. […] RPMI is normal medium with 15% fetal calf serum. […] CHAT contained 1×10^-5 M cytidine, 2×10^-4 M hypoxanthine, 2×10^-7 M aminopterin, and 1.75×10^-5 M thymidine."}, "TK6 cells [5]": {"system": "TK6 cells", "assay": "Optimization of selective agent concentration (Example 6, FIG. 4)", "type": "cell-based, human", "details": "0.33 μg/ml through 10 μg/ml; microtiter plates, two weeks", "excerpt": "FIG. 4 is a plot of the data obtained wherein each point is the average of two independent platings."}, "[6]": {"system": "trifluorothymidine-resistant TK6 mutant clones", "assay": "Plating efficiency of induced mutants in trifluorothymidine (Example 6, Table 3)", "type": "cell-based, human", "excerpt": "The effect of dead TK6 cells on the expression of mutants growing in microtiter plates was also studied."}, "[7]": {"details": "1 mM × 24 Hrs, day 1 post-treatment"}, "[8]": {"details": "1 mM × 24 Hrs, day 3 post-treatment"}, "[9]": {"details": "1 mM × 24 Hrs, day 5 post-treatment"}, "[10]": {"details": "0.25 μg/ml × 24 Hrs, day 0 post-treatment"}, "[11]": {"details": "0.25 μg/ml × 24 Hrs, day 2 post-treatment"}, "[12]": {"details": "0.25 μg/ml × 24 Hrs, day 4 post-treatment"}, "[13]": {"details": "0.5 μg/ml × 24 Hrs, day 0 post-treatment"}, "[14]": {"details": "0.5 μg/ml × 24 Hrs, day 2 post-treatment"}, "[15]": {"details": "0.5 μg/ml × 24 Hrs, day 4 post-treatment"}}, "data": [{"compound": "c1cc2cccc3c4cccc5cccc(c(c1)c23)c54", "note": "[perylene]", "values": [{"measurement": "mutagenic activity for these human cells", "setting": "TK6 cells [1]", "result": "inactive"}]}, {"compound": "CCCCOS(C)(=O)=O", "note": "[BMS, butylmethane sulfonate]", "values": [{"measurement": "Observed Mutants per 4 × 10^6 Cells", "setting": "TK6 cell line; [7]", "result": 132}, {"measurement": "Plating Efficiency", "setting": "TK6 cell line; [7]", "result": 0.094}, {"measurement": "Observed Mutants per 4 × 10^6 Cells", "setting": "TK6 cell line; [8]", "result": 275}, {"measurement": "Plating Efficiency", "setting": "TK6 cell line; [8]", "result": 0.15}, {"measurement": "Observed Mutants per 4 × 10^6 Cells", "setting": "TK6 cell line; [9]", "result": 387}, {"measurement": "Plating Efficiency", "setting": "TK6 cell line; [9]", "result": 0.23}, {"measurement": "toxicity to TK6 and a mixture of mutants or a single mutant clone", "setting": "[2]", "result": "equally toxic"}]}, {"compound": "Nc1nc2nc[nH]c2c(=S)[nH]1", "note": "[6-thioguanine]", "values": [{"measurement": "phenotypic expression time of 6-thioguanine resistance", "setting": "TK6 cells [3]", "result": "5 to 6", "unit": "days"}]}, {"compound": "COc1ccc2nc3cc(Cl)ccc3c(NCCCNCCCl)c2c1", "note": "[ICR-191]", "values": [{"measurement": "Observed Mutants per 4 × 10^6 Cells", "setting": "TK6 cell line; [10]", "result": 26}, {"measurement": "Plating Efficiency", "setting": "TK6 cell line; [10]", "result": 0.25}, {"measurement": "Observed Mutants per 4 × 10^6 Cells", "setting": "TK6 cell line; [11]", "result": 139}, {"measurement": "Plating Efficiency", "setting": "TK6 cell line; [11]", "result": 0.26}, {"measurement": "Observed Mutants per 4 × 10^6 Cells", "setting": "TK6 cell line; [12]", "result": 126}, {"measurement": "Plating Efficiency", "setting": "TK6 cell line; [12]", "result": 0.27}, {"measurement": "Observed Mutants per 4 × 10^6 Cells", "setting": "TK6 cell line; [13]", "result": 55}, {"measurement": "Plating Efficiency", "setting": "TK6 cell line; [13]", "result": 0.24}, {"measurement": "Observed Mutants per 4 × 10^6 Cells", "setting": "TK6 cell line; [14]", "result": 229}, {"measurement": "Plating Efficiency", "setting": "TK6 cell line; [14]", "result": 0.25}, {"measurement": "Observed Mutants per 4 × 10^6 Cells", "setting": "TK6 cell line; [15]", "result": 182}, {"measurement": "Plating Efficiency", "setting": "TK6 cell line; [15]", "result": 0.20}]}, {"compound": "c1ccc2c(c1)-c1cccc3cccc-2c13", "note": "[fluoranthene]", "values": [{"measurement": "mutagenic activity for these human cells", "setting": "TK6 cells [1]", "result": "active as mutagens"}]}, {"compound": "O=c1[nH]c(=O)n([C@H]2C[C@H](O)[C@@H](CO)O2)cc1C(F)(F)F", "note": "[trifluorothymidine]", "values": [{"measurement": "T2 - F3 TdR (doubling time)", "setting": "[4]; TK6", "result": "NG"}, {"measurement": "growth of mutants in F3 TdR", "setting": "[4]; all mutants", "result": "all mutants grew well"}, {"measurement": "T2 - F3 TdR (doubling time)", "setting": "[4]; mutant BMS-2", "result": 18.4}, {"measurement": "T2 - F3 TdR (doubling time)", "setting": "[4]; mutant BMS-3", "result": 19.2}, {"measurement": "T2 - F3 TdR (doubling time)", "setting": "[4]; mutant BMS-4", "result": 17.7}, {"measurement": "T2 - F3 TdR (doubling time)", "setting": "[4]; mutant BMS-5", "result": 19.7}, {"measurement": "T2 - F3 TdR (doubling time)", "setting": "[4]; mutant ICR-1", "result": 18.6}, {"measurement": "T2 - F3 TdR (doubling time)", "setting": "[4]; mutant ICR-2", "result": 21.2}, {"measurement": "observed mutant fraction of an untreated culture versus trifluorothymidine concentration", "setting": "TK6 cells [5]", "result": "no difference in the observed mutant fraction"}, {"measurement": "PE in RPMI - F3 TdR", "setting": "[6]; mutant BMS-2", "result": 0.09}, {"measurement": "PE in RPMI-F3 TdR with 40,000 TK6/well", "setting": "[6]; mutant BMS-2", "result": 0.09}, {"measurement": "PE in RPMI - F3 TdR", "setting": "[6]; mutant BMS-3", "result": 0.21}, {"measurement": "PE in RPMI-F3 TdR with 40,000 TK6/well", "setting": "[6]; mutant BMS-3", "result": 0.17}, {"measurement": "PE in RPMI - F3 TdR", "setting": "[6]; mutant BMS-4", "result": 0.11}, {"measurement": "PE in RPMI-F3 TdR with 40,000 TK6/well", "setting": "[6]; mutant BMS-4", "result": 0.15}, {"measurement": "PE in RPMI - F3 TdR", "setting": "[6]; mutant BMS-5", "result": 0.29}, {"measurement": "PE in RPMI-F3 TdR with 40,000 TK6/well", "setting": "[6]; mutant BMS-5", "result": 0.31}, {"measurement": "PE in RPMI - F3 TdR", "setting": "[6]; mutant ICR-1", "result": 0.21}, {"measurement": "PE in RPMI-F3 TdR with 40,000 TK6/well", "setting": "[6]; mutant ICR-1", "result": 0.21}, {"measurement": "PE in RPMI - F3 TdR", "setting": "[6]; mutant ICR-2", "result": 0.09}, {"measurement": "PE in RPMI-F3 TdR with 40,000 TK6/well", "setting": "[6]; mutant ICR-2", "result": 0.10}]}]}
